Measured values taken from patent US8138159B2, “Composition for inhibiting function of human Flt3” (Takara Bio Inc., priority 2003, dated 2012).
Marks after values point to notes of the source that are not given here.

Key:
Format in all cases: cell-based, human
Flt3 mRNA = Flt3 mRNA interference by synthesized siRNA, real-time RT-PCR (Example 1); settings: for inhibition percentage (%) of the relative mRNA expression level (Flt3 mRNA/GAPDH mRNA): siRNA 200 pmol, Oligofectamin, after 24 hours, vs cells transfected without siRNA
Protocol: Each kind of cell selected from HL-60 cells [Flt3 WT (wild-type) low expressing cells; ATCC CCL-240], EoL-1 cells [Flt3 WT (wild-type) highly expressing cells; ECACC 94042252] and MV4-11 cells [Flt3/ITD highly expressing cells; ATCC CRL-9591] was cultured at 37° C. in an RPMI 1640 medium (manufactured by TAKARA BIO INC.) supplemented with 10% by volume fetal bovine serum (FBS) in the presence of 5% by volume CO2.
Then, the cells (2×10^5 cells/nil) were pre-cultured for 24 hours in a 6-well plate, then recovered, and suspended so as to give a density of 1.5×10^5 cells/ml in Opti-MEM (trade name, manufactured by Invitrogen), and the synthesized siRNA was added to the resulting suspension so as to give a final concentration of 200 pmol. Transfection was carried out using Oligofectamin (trade name, manufactured by Invitrogen) in an amount of 4 μl/reaction, according to an Invitrogen's protocol attached to Oligofectamin (trade name). As a control, the cells were subjected to similar operations without adding the siRNA. The unspecific influence of the siRNA was evaluated using an siRNA to a BCR/ABL chimera mRNA.
Confirmation of RNA interference of the target gene was carried out by determining change in mRNA level by a real-time RT-PCR method as shown below.
Using Oligofectamin (trade name, manufactured by Invitrogen), each kind of cell was transfected with the synthesized siRNA. After 24 hours, whole RNA was extracted from the resulting cells with TRIzol™ reagent (manufactured by Invitrogen), and the resulting product was treated with DNaseI (manufactured by TAKARA BIO INC.). The transfection, the extraction of the whole RNA and the treatment with DNaseI were carried out according to a manufacturer's protocol of the reagent used.
The real-time PCR method was carried out using a Real Time One Step RNA PCR Kit (trade name, manufactured by TAKARA BIO INC.), 100 ng of the resulting RNA as a template and a pair of primers (each 20 pmol), that is, an oligonucleotide having the nucleotide sequence of SEQ ID NO: 13 and an oligonucleotide having the nucleotide sequence of SEQ ID NO: 14. In the real-time RT-PCR method, change in fluorescence based on SYBER Green I (manufactured by TAKARA BIO INC.) was determined with Light Cycler (trade name, manufactured by Roche). The RNA level was standardized by similarly determining GAPDH mRNA with primers set forth in SEQ ID NOs: 15 and 16.
The PCR conditions were as follows: after incubation was carried out at 95° C. for 30 seconds, the reaction was carried out in 40 cycles each consisting of the reaction at 95° C. for 1 second, then at 60° C. for 10 seconds, and at 72° C. for 30 seconds.
The inhibition percentage (%) of the relative mRNA expression level (Flt3 mRNA/GAPDH mRNA) changed by using the synthesized siRNA, as calculated assuming that the relative mRNA expression level (Flt3 mRNA/GAPDH mRNA) of the cells only subjected to each operation of the transfection without adding the synthesized siRNA was 100%, was shown in Table 1.

[1] = test system: EoL1 cells (WT-highly expressing); assay: cell growth activity, Premix WST1 (Example 2); settings: for Relative growth ability (%) compared with the control: siRNA 10 nM, after 20 hours, n=3 mean, control = transfection without siRNA
Protocol: (§1) The cells placed in a 96-well plate at a density of 2×10^4 cells/well were cultured in an RPMI medium (containing 10% by volume FBS). The cells were transfected with each of the synthesized (10 nM each) siRNAs, and after 20 hours, the cell growth activity was determined with Premix WST1 reagent (trade name, manufactured by TAKARA BIO INC.). Relative growth ability (%) compared with the growth ability of the control (cells subjected to transfection without adding an siRNA) was determined. Each experiment was carried out with n=3, and the mean was determined.

[2] = test system: MV4-11 cells (ITD mutation-highly expressing); assay: cell growth activity, Premix WST1 (Example 2); settings: for Relative growth ability (%) compared with the control: siRNA 10 nM, after 20 hours, n=3 mean, control = transfection without siRNA
Protocol: as §1

[3] = test system: HL60 cells (WT-low expressing); assay: cell growth activity, Premix WST1 (Example 2); settings: for Ratio of cell-growth activation defining RNA interference effect in HL60 as 1: HL60, the reference itself; for Relative growth ability (%) compared with the control: HL60, siRNA 10 nM, after 20 hours, n=3 mean, control = transfection without siRNA
Protocol: as §1

[4] = test system: MV4-11 (ITD mutation) cells; assay: growth inhibition by siRNA3 in combination with kinase inhibitor AG1295, WST-1 (Example 4); settings: Homo sapiens, MV4-11, kinase inhibitor alone (control siRNA), 72 hours, n=6 mean, read-out: growth inhibition as compared with the cells transfected with the control siRNA/0 μM AG1295
Protocol: The growth inhibitory activity of treatment with a combination of the composition (synthesized siRNA3) of the present invention and a kinase inhibitor on MV4-11 (ITD mutation) cells was examined. The synthesized siRNA3 used was the same as in item (1) of Example 1 above. As the kinase inhibitor, AG1295 (manufactured by CALBIOCHEM) having high specificity to ITD mutation cells was used.
In the same manner as in item (2) of Example 1 above, MV4-11 cells were cultured at 37° C. for 24 hours in a medium obtained by supplementing 10% by volume fetal bovine serum (FBS) to an RPMI 1640 medium (manufactured by TAKARA BIO INC.) (referred to hereinafter as a culture medium) in the presence of 5% by volume CO2. Then, the MV4-11 cells (1×10^6 cells/ml) suspended in Opti-MEM (trade name, manufactured by Invitrogen) were transferred to a cuvette (manufactured by BIO RAD; gap of 4 mm), and siRNA3 was added to the cuvette so as to give a final concentration of 1.2 μM. Then, the cuvette was set in Gene Pulser Xcell (trade name, manufactured by BIO RAD) and thereafter pulsed with electric field intensity of 650 V/cm for 25 msec. Then, the suspension of the cells in the cuvette was added to, and suspended in, a 4-fold excess volume of the culture medium and dispensed onto a 96-well plate so as to give an amount of 100 μl/well. […]
4 mM AG1295 (dissolved in DMSO) was diluted with the above-mentioned culture medium to prepare AG1295 dilutions at a concentration of 10 μM, 6 μM and 0 μM (0.25% by volume DMSO) and added so as to give an amount of 100 μl/well to the 96-well plate prepared in step (2) above and cultured at 37° C. in the presence of 5% by volume CO2. Seventy-two hours after the culture was initiated, the growth activity of the cells was determined using Premix WST-1 reagent (trade name, manufactured by TAKARA BIO INC.) according to a manufacturer's protocol. Each experiment was carried out with n=6, and the mean was determined. The relative growth ratio (%) to the growth ability of the cells transfected with the control siRNA/0 μM AG1295 was determined. […]

[5] = MV4-11 (ITD mutation-highly expressing)
[6] = EoL1 (WT-highly expressing), the reference itself

Compound | inhibition percentage (%) of the relative mRNA expression level (Flt3 mRNA/GAPDH mRNA) (Flt3 mRNA; EoL1 (WT-highly expressing)) [%] | inhibition percentage (%) of the relative mRNA expression level (Flt3 mRNA/GAPDH mRNA) (Flt3 mRNA; HL60 (WT-low expressing)) [%] | inhibition percentage (%) of the relative mRNA expression level (Flt3 mRNA/GAPDH mRNA) (Flt3 mRNA; [5]) [%] | inhibition of Flt3 mRNA expression (in words) (Flt3 mRNA; siRNA irrelevant to Flt3 mRNA, sequence specificity) | Ratio of cell-growth activation defining RNA interference effect in HL60 as 1 [1] | Relative growth ability (%) compared with the control [1] [%] | Ratio of cell-growth activation defining RNA interference effect in HL60 as 1 [2] | Relative growth ability (%) compared with the control [2] [%] | Ratio of cell-growth activation defining RNA interference effect in HL60 as 1 [3] | Relative growth ability (%) compared with the control [3] [%] | Relative ratio of inhibition defining RNA interference effect in EoL1 as 1 (Flt3 mRNA; [6]) | Relative ratio of inhibition defining RNA interference effect in EoL1 as 1 (Flt3 mRNA; [5]) | selective inhibition of Flt3 mRNA expression relative to the inhibition ratio in the cells without ITD mutation (WT) (Flt3 mRNA; cells having ITD mutation vs WT cells) [fold] | inhibition at 3 µM ([4]; 3.0 μM) [%] | inhibition at 5 µM ([4]; 5.0 μM) [%] | inhibition of Flt3 mRNA expression relative to the cells without using an siRNA (Flt3 mRNA; all cells (MV4-11, EoL1, HL60))
siRNA4: siRNA to BCR/ABL chimera mRNA (target SEQ ID NO: 10); sense SEQ ID NO: 11, antisense SEQ ID NO: 12; unspecific control (sense GCAGAGUUCAAAAGCCCUUTT; antisense AAGGGCUUUUGAACUCUGCTT; chemistry not given here) [reference compound] | 8 | 7 | 5 | did not occur | – | – | – | – | – | – | – | – | – | – | – | –
siRNA1: siRNA to ATP-binding site region of Flt3 (target SEQ ID NO: 1); sense SEQ ID NO: 2, antisense SEQ ID NO: 3 (sense GGUACUAGGAUCAGGUGCUTT; antisense AGCACCUGAUCCUAGUACCTT; chemistry not given here) | 41 | 31 | 65 | – | (0.60) | 68.5 | (0.49) | 56.4 | (1)* | 116 | (1)* | (1.6) | ≥ 1.6 | – | – | –
Cc1cc2ncc(-c3ccccc3)nc2cc1C [AG1295] | – | – | – | – | – | – | – | – | – | – | – | – | – | 59.8 | 84.3 | –
siRNA2: siRNA to TK (kinase) region of Flt3 (target SEQ ID NO: 4); sense SEQ ID NO: 5, antisense SEQ ID NO: 6 (sense CAGGAGUCUCAAUCCAGGUTT; antisense ACCUGGAUUGAGACUCCUGTT; chemistry not given here) | 54 | 46 | 54 | – | (0.70) | 79.7 | (0.36) | 41.4 | (1) | 115 | (1) | (1) | – | – | – | around 50%
